Peptide text beside a SMILES is read from it.
Columns and labels:
Type in all cases: in vivo
[1] = biological target: T1, binding sites on mast cells (Homo sapiens, UniProt P12319); experiment: Prausnitz-Kustner (P-K) reaction blocking activity assay in human volunteers; settings: for inhibition, individual high: highest individual of six; for inhibition, individual high / inhibition, individual low: same conditions as the average; for inhibition, individual low: lowest individual of six; for average % inhibition (P-K wheal): six individuals, peptide approx. 6 μg/ml, 0.1 ml intradermally per site, 0.05 ml diluted P-K serum containing 0.2 ng IgE, guinea pig antigen prick-puncture, versus control wheal
T1 construct: endogenous in cells; host or cells: skin mast cells of living human volunteers (intradermal injection sites on back or forearm)
T1 sequence (P12319 26-257): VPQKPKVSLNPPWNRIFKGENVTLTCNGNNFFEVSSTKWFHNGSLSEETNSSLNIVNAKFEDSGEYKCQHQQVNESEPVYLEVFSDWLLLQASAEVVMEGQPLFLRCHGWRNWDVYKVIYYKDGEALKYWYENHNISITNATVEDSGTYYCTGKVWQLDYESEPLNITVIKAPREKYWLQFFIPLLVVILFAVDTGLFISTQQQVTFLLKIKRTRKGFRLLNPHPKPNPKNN
T1 sequence (Q01362 1-244 partner): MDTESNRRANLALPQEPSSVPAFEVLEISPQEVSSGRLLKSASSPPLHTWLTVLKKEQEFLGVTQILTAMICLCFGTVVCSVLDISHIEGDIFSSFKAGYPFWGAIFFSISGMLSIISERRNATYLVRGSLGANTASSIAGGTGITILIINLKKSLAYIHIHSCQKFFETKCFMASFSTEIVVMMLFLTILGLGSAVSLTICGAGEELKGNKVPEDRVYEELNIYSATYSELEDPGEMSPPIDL
T1 sequence (P30273 19-86 partner): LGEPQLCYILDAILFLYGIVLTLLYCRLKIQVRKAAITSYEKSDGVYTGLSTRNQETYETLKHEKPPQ
Description: The "blocking" activity of the polypeptides of the invention can be assayed by utilization of the classic Prausnitz-Kustner (P-K) reaction. In this classic method, a known allergic serum i.e., one that contains IgE specific for a known antigen or allergen is injected intradermally into a human volunteer. After waiting a period of time, e.g. 20 or more hours, the injected sites are then challenged with a prick or injection of a solution of an antigen that is specific for the IgE in the injected serum. Within the next 10 to 30 minutes a positive reaction is evidenced by the development of a wheal (and flare) at the injected site. The more extensive the diameter of the wheal the more intensive is the allergic reaction. That is, a more extensive wheal indicates a greater release of histamine into the tissues at the injected site. Conversely, the development of wheals of lesser diameter or the absence of any wheal at all indicates diminished allergic reaction and/or no allergic reaction at all. The P-K reaction as noted above is a classic test and is universally known and utilized by allergists.
As noted above, the classic P-K reaction is utilized to assay the "blocking" abilities of the polypeptides utilized in the present invention.
The following describes assays of a number of polypeptides useful in the present invention, the synthesis of which was described hereinabove.
All of these assays were performed using a single proven safe P-K donor serum that contains IgE specific for guinea pig allergens.
Peptide solutions were either injected intradermally 1 to 24 hours prior to the P-K serum, or mixed with dilutions of the P-K serum for simultaneous injection. Initial tests were performed using the P-K serum at from 1:4 to 1:200 dilutions. Further studies were run at a fixed P-K dilution of 1:32 while the invention peptide solutions were varied to contain from about 1 mM to […] of the peptide being tested. Injected sites on the volunteers were challenged by prick-puncture of guinea pig BCA 1:40 w/v (purchased from Berkeley Biologicals, Inc.).
Human volunteers were chosen who had serum IgE levels below 100 U/ml (242 ng/ml) which levels have been previously shown to assure successful P-K reactivity. […] P-K and skin tests were performed on the back and/or forearm. Multiple test sites of approximately 25 mm diameter were circled with a marking pen and all injections were made within the circled skin areas.
A typical sequence of events was intradermal injection of 0.1 ml of the peptide solution or control buffered saline diluent solution; followed in 1 to 24 hours by intradermal injection of 0.05 ml. of P-K serum into each of the previously injected sites. After 20 to 24 hours had elapsed, each site was prick-punctured with the antigen solution, blotted dry in 5 minutes and measurements of the wheal and flare in both their narrowest and widest diameter were made three times, usually 15, 20 and 25 minutes after prick-punctures.
Blocking activity assays were undertaken with the following polypeptides: Asp-Pro-Arg; Ser-Asp-Pro-Arg; Asp-Ser-Asp-Pro-Arg; and Ala-Asp-Ser-Asp-Pro-Arg. For comparison testing, Asp-Thr-Glu-Ala-Arg and tosyl-L-arginine sarcosine methylester (TASME), were also synthesized and tested.
The above-noted polypeptides were assayed as noted above on six different individuals. Results were as follows:
The results, as noted above, present the average of measurements at three time intervals, in duplicate, for each reaction in each individual, subtracted from the average control wheal measurements, and divided by the average measurement of each individual's control wheal. Control wheals in different individuals varied from 8 to 40 mm^2 with a mean of 17 mm^2. Each peptide was utilized at approximately 6 μg/ml dilution and 0.1 ml. was injected at each site, followed by 0.05 ml. of diluted P-K serum containing 0.2 ng. of IgE. […]

[2] = biological target: T2, IgE already bound to mast cell sites (Homo sapiens, UniProt P12319); experiment: Displacement test: direct guinea pig antigen skin challenge in a naturally sensitive individual; settings: single sensitive individual; for wheal smaller than at buffered saline diluent site: challenge twenty-four hours after intradermal injection of approx. 2 nM
T2 construct: endogenous in cells; host or cells: skin mast cells of one naturally guinea-pig-sensitive person, carrying own IgE
T2 sequence (P12319 26-257): T1 sequence (P12319 26-257)
T2 sequence (Q01362 1-244 partner): T1 sequence (Q01362 1-244 partner)
T2 sequence (P30273 19-86 partner): T1 sequence (P30273 19-86 partner)
Description: It has also been determined that the active polypeptides of the invention appear to have the ability to "displace" IgE from mast cell sites as well as to prevent the binding of IgE to these sites. In a single test, an individual known to have extreme sensitivity to guinea pig antigens, that is a person with a high natural concentration of guinea-pig-antigen-sensitive IgE, was injected with polypeptides in accordance with the invention, and […] reaction to guinea pig antigen was noted.
Specifically, approximately 2 nM each of Asp-Ser-Asp-Pro-Arg and Ala-Asp-Ser-Asp-Pro-Arg were each intradermally injected into 3 marked sites. For comparison, TASME, as well as a control of the buffer diluent alone, was also each injected into 3 marked sites. At one, five and twenty-four hours subsequent to the polypeptide and control injection, one of each peptide and one diluent site were prick-puncture challenged with guinea pig antigen. […] However, at the twenty-four hour challenge, the wheal at the Asp-Ser-Asp-Pro-Arg site was approximately 45% smaller; while at the Ala-Asp-Ser-Asp-Pro-Arg site, the wheal was approximately 23% smaller.

DBA white mice = experiment: Acute toxicity in DBA white mice; settings: 24 to 72 hours post-injection; for post-mortem gross and microscopic examination of tissues and organs: 1.4 ml i.d./s.c./i.v./i.p.
Description: Acute toxicity was determined as follows:
DBA white mice (average weight 15 g.) were each injected with 1.4 ml. of a solution of the peptide in phosphate buffered saline, pH 7.4, as follows:
0.1 ml.×3 --subcutaneously
0.6 ml.--intraperitoneally
The peptides and concentrations used were as follows:
Ala-Asp-Ser-Asp-Pro-Arg (Example 4)--5 μg/ml--(375 mg/kg)--6 mice
Asp-Ser-Asp-Pro-Arg (Example 3)--10 μg/ml--(1 mg/kg)--8 mice
Asp-Ser-Asp-Pro-Arg (Example 3)--13 μg/ml--(1.3 mg/kg)--8 mice

| Compound | inhibition, individual high [1] | inhibition, individual low [1] | average % inhibition (P-K wheal) [1] | inhibition of the wheal and flare reaction ([2]; challenge one and five hours after intradermal injection of approx. 2 nM) | wheal smaller than at buffered saline diluent site [2] | post-mortem gross and microscopic examination of tissues and organs (DBA white mice; 10 μg/ml (1 mg/kg), 8 mice) | survival of mice (DBA white mice; 10 μg/ml (1 mg/kg), 8 mice) | post-mortem gross and microscopic examination of tissues and organs (DBA white mice; 13 μg/ml (1.3 mg/kg), 8 mice) | survival of mice (DBA white mice; 13 μg/ml (1.3 mg/kg), 8 mice) | post-mortem gross and microscopic examination of tissues and organs (DBA white mice; 5 μg/ml (375 mg/kg), 6 mice) | survival of mice (DBA white mice; 5 μg/ml (375 mg/kg), 6 mice) |
| --- | --- | --- | --- | --- | --- | --- | --- | --- | --- | --- | --- |
| tosyl-L-arginine sarcosine methylester [TASME, reference compound] | 40% | 0% | 24% | No inhibition | No reduction in the size of the wheal |  |  |  |  |  |  |
| C[C@H](NC(=O)[C@H](CCC(=O)O)NC(=O)[C@@H](NC(=O)[C@@H](N)CC(=O)O)[C@@H](C)O)C(=O)N[C@@H](CCCNC(=N)N)C(=O)O [Asp-Thr-Glu-Ala-Arg, reference compound] (H-DTEAR-OH) | 80% | 30% | 58% |  |  |  |  |  |  |  |  |
| N=C(N)NCCC[C@H](NC(=O)[C@@H]1CCCN1C(=O)[C@H](CC(=O)O)NC(=O)[C@H](CO)NC(=O)[C@@H](N)CC(=O)O)C(=O)O [Asp-Ser-Asp-Pro-Arg] (H-DSDPR-OH) | 89% | 60% | 72% |  | approximately 45% | no local or systemic toxicological abnormalities | all still living | no local or systemic toxicological abnormalities | all still living |  |  |
| C[C@H](N)C(=O)N[C@@H](CC(=O)O)C(=O)N[C@@H](CO)C(=O)N[C@@H](CC(=O)O)C(=O)N1CCC[C@H]1C(=O)N[C@@H](CCCNC(=N)N)C(=O)O [Ala-Asp-Ser-Asp-Pro-Arg] (H-ADSDPR-OH) | 61% | 10% | 46% |  | approximately 23% |  |  |  |  | no local or systemic toxicological abnormalities | all still living |
| N=C(N)NCCC[C@H](NC(=O)[C@@H]1CCCN1C(=O)[C@H](CC(=O)O)NC(=O)[C@@H](N)CO)C(=O)O [Ser-Asp-Pro-Arg] (H-SDPR-OH) | 50% | 0% | 18% |  |  |  |  |  |  |  |  |
| N=C(N)NCCC[C@H](NC(=O)[C@@H]1CCCN1C(=O)[C@@H](N)CC(=O)O)C(=O)O [Asp-Pro-Arg] (H-Asp-Pro-Arg-OH) | 38% | 0% | 15% |  |  |  |  |  |  |  |  |
